ChEMBL document CHEMBL3616413, “Isolation and structure of vanitaracin A, a novel anti-hepatitis B virus compound from Talaromyces sp” (Bioorg Med Chem Lett, 2015)

Legend:
Hepatitis B virus = assay: Antiviral activity against HBV infected in human HepG2 cells expressing hNTCP-C4 assessed as viral envelope surface protein secretion treated for 16 hrs followed by compound washout measured after 12 days by ELISA; type: functional, organism-based
[1] = Cytotoxicity against human HepG2 cells expressing hNTCP-C4 assessed as cell viability by MTT assay; type: cell-based; parameters: concentration or dose not given beside the values; conditions: read-out: Activity

SMILES | IC50 (Hepatitis B virus) [µM] | viability [1] [%]
CCC(C)CC(C)C(=O)OC1(C)C(=O)c2c(cc(O)c3c2C[C@@H](O)C[C@H]3C)C(C)(O)C1=O (stereo not given in full) | 10.5 | > 90
CCC(C)CC(C)C(=O)OC1(C)C(=O)Cc2cc(O)c3c(c2C1=O)C[C@@H](O)C[C@H]3C (stereo not given in full) | 91.2 | > 90
Cc1cccc(O)c1C(=O)Cc1c(C=O)cc(O)c(C)c1O | 51.4 | > 90
CCC(=O)Cc1cc(=O)c2c(C)cc(O)cc2o1 | 72.4 | > 90
CCC(=O)CC1(O)CC(=O)c2c(C)cc(O)cc2O1 (stereo not given) | 52.1 | > 90
